Patent US20240109853A1 (Shanghai Yao Yuan Biotechnology Co., Ltd., priority 2020, published 2024)
Read-outs that look alike come from different tables or passages of the source.

Legend:
[1] = tested on: ALPK1-dependent NFκB reporter gene activation in HEK293 cells stably expressing an NF-kB reporter (G9 cells); assay: NFκB gene reporter alkaline phosphatase assay; type: cell-based; settings: read-out: NFkB assay IC50
Procedure, shortened: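 Using pNPP substrate, NF-kB reporter activity in stably transfected HEK293 (G9) cells is determined following 30 min compound pretreatment and stimulation with D-glycero-D-manno-6-fluoro-heptose-1β-S-ADP. Logistic curve fitting yields IC50.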

ALPK1 = ALPK1 (Homo sapiens (Human), UniProt Q96QP1); assay: ALPK1 in vitro kinase assay (HTRF of TIFA phosphorylation); type: biochemical
hALPK1-V1092A = hALPK1-V1092A (Homo sapiens (Human), UniProt Q96QP1, V1092A); assay: cell-based
Method: Accordingly, we used IL-8 secretion as an indicator of activated ALPK1 inhibition in cells expressing these mutations.
Transfection was performed according to manufacturer's protocols (Lipofectamine™ 3000, ThermoFisher). Transfected cells were selected, seeded onto 96-well plates and treated with serial dilutions of the test compounds for 6.5 hr. Following treatment, cell viability was determined using a luminescent cell viability assay (Cell Counting-Lite Assay or “CCL Assay” from Vazyme Biotech Co., Ltd.) and cell free supernatants were collected and analyzed for IL-8 protein by IL-8 ELISA as described above.
Fresh medium and compound were added at 18 hours. Cell viability and IL-8 secretion were determined 6 hours after the second addition of compound, using the CCL assay and IL-8 ELISA as described above.

[2] = tested on: polymicrobial sepsis induced by cecal ligation and puncture; assay: Sepsis induced acute kidney injury model (cecal ligation and puncture, CLP); settings: rat CLP, 20 mg/kg 2 hours prior to surgery
Method: Survival was recorded over the following 24 hours.
24 hours post-surgery, the kidneys were collected for gene expression analysis by Q-PCR.
24 hours post-surgery, plasma MCP-1 concentration was measured by ELISA.
We used a rat CLP model to evaluate the effects of compounds described here on sepsis. Briefly, the rat cecum was ligated with sterile silk thread, and then cecum was punctured twice with a needle, gently squeezed to express a small amount of fecal material, then the abdominal incision was closed. […] In addition, at 24 hours post-surgery, the kidneys were collected for gene expression analysis by Q-PCR and plasma was collected for measurement of plasma MCP-1 concentrations by ELISA.

[3] = ALPK1 2 nM, TIFA substrate, ADP-Heptose activator, HTRF readout

Sequence of ALPK1 (Q96QP1 whole entry): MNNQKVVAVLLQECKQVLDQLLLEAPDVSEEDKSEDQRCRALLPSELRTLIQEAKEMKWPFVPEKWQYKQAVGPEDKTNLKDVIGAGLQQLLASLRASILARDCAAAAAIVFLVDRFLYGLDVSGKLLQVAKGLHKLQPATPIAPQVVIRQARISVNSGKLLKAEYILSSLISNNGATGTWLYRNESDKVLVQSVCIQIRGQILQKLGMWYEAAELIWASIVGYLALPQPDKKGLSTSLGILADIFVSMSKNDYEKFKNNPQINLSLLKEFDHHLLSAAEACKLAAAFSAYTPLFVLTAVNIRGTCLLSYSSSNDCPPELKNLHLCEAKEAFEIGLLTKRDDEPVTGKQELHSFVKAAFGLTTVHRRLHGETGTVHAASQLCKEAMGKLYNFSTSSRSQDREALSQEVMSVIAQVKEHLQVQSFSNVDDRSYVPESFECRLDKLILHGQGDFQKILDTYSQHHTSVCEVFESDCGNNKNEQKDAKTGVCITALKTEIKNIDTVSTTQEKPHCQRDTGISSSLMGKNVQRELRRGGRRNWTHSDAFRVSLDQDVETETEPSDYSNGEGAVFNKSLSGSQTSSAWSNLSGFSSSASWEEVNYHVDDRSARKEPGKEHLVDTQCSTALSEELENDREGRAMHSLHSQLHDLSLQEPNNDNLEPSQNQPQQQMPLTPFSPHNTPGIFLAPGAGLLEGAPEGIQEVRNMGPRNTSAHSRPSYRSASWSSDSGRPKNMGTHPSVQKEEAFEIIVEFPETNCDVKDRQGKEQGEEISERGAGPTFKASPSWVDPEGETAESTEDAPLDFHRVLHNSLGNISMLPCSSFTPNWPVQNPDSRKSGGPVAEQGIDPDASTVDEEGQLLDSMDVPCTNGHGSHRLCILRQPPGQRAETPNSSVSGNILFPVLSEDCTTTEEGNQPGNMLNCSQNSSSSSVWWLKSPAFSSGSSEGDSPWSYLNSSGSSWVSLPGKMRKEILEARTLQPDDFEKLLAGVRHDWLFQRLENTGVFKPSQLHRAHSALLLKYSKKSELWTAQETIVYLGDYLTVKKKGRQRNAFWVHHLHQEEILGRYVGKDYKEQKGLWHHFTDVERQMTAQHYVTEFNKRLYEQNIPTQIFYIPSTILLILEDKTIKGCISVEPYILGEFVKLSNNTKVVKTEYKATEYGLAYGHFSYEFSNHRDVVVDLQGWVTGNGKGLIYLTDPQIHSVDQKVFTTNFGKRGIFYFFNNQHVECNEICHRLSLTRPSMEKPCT
Sequence of hALPK1-V1092A (Q96QP1 whole entry V1092A): as the sequence (Q96QP1 whole entry) above, with V1092A counted along it

Row | Compound | IC50 ([1]; Homo sapiens, HEK293) [nM] | IC50 (ALPK1) [nM] | IC50 (hALPK1-V1092A) [nM] | IC50 [1] [nM] | kidney proinflammatory gene expression (IL6, TNFa, IL-1b, CCl2, KC) ([2]; kidneys 24 hours post-surgery, Q-PCR) | survival ([2]; survival over 24 hours) | IC50 (ALPK1; [3]) [nM]
1 | C#C[C@@](C)(c1ccc(Cl)cc1)c1csc(NC(=O)N2CC(CN3CCNCC3)C2)n1 (stereo in doubt) [Example A292, N-(4-(2-(4-chlorophenyl)but-3-yn-2-yl)thiazol-2-yl)-3-(piperazin-1-ylmethyl)azetidine-1-carboxamide] | 650 | 43 | 547 |  |  |  | 
2 | C#C[C@@](C)(c1ccc(Cl)cc1)c1csc(NC(=O)NC(C)CO)n1 (stereo in doubt) [Example A312, 1-(4-(2-(4-chlorophenyl)but-3-yn-2-yl)thiazol-2-yl)-3-(1-hydroxypropan-2-yl)urea] | 2120 |  | 16000 |  |  |  | 
3 | C#C[C@@](C)(c1ccc(Cl)cc1)c1csc(NC(=O)NC(C)CO)n1 (stereo in doubt) [Example A313, 1-(4-(2-(4-chlorophenyl)but-3-yn-2-yl)thiazol-2-yl)-3-(1-hydroxypropan-2-yl)urea] |  |  | 10200 | 2820 |  |  | 
4 | C#C[C@](C)(c1ccc(Cl)cc1)c1csc(NC(=O)NC(C)CO)n1 (stereo in doubt) [Example A314, 1-(4-(2-(4-chlorophenyl)but-3-yn-2-yl)thiazol-2-yl)-3-(1-hydroxypropan-2-yl)urea] | 800 |  | 4000 |  |  |  | 
5 | C#C[C@](C)(c1ccc(Cl)cc1)c1csc(NC(=O)NC(C)CO)n1 (stereo in doubt) [Example A315, 1-(4-(2-(4-chlorophenyl)but-3-yn-2-yl)thiazol-2-yl)-3-(1-hydroxypropan-2-yl)urea] |  |  | 2770 | 650 |  |  | 
6 | C#C[C@](C)(c1ccc(Cl)cc1)c1csc(NC(=O)NCC(C)O)n1 (stereo in doubt) [Example A316, 1-(4-(2-(4-chlorophenyl)but-3-yn-2-yl)thiazol-2-yl)-3-(2-hydroxypropyl)urea] | 1810 |  | 16400 |  |  |  | 
7 | C#C[C@@](C)(c1ccc(Cl)cc1)c1csc(NC(=O)NCC(C)O)n1 (stereo in doubt) [Example A317, 1-(4-(2-(4-chlorophenyl)but-3-yn-2-yl)thiazol-2-yl)-3-(2-hydroxypropyl)urea] | 970 |  | 1930 |  |  |  | 
8 | C#C[C@@](C)(c1ccc(Cl)cc1)c1csc(NC(=O)NCC(C)O)n1 (stereo in doubt) [Example A319, 1-(4-(2-(4-chlorophenyl)but-3-yn-2-yl)thiazol-2-yl)-3-(2-hydroxypropyl)urea] |  |  | 7860 | 670 |  |  | 
9 | C#C[C@](C)(c1ccc(Cl)cc1)c1csc(NC(=O)NCCO)n1 [Example A175, (R)-1-(4-(2-(4-chlorophenyl)but-3-yn-2-yl)thiazol-2-yl)-3-(2-hydroxyethyl)urea] | 1310 | 32 | 4030 |  |  |  | 
10 | C#C[C@@](C)(c1ccc(Cl)cc1)c1csc(NC(=O)NCCO)n1 [Example A176, (S)-1-(4-(2-(4-chlorophenyl)but-3-yn-2-yl)thiazol-2-yl)-3-(2-hydroxyethyl)urea] | 280 | 5.4 | 1550 |  |  |  | 
11 | C#CC(C)(c1ccc(Cl)cc1)c1csc(NC(=O)NCC(O)CO)n1 (stereo not shown) [Example A244, 1-(4-(2-(4-chlorophenyl)but-3-yn-2-yl)thiazol-2-yl)-3-(2,3-dihydroxypropyl)urea] | 1030 | 72 | 4790 |  |  |  | 
12 | C#C[C@@](C)(c1ccc(Cl)cc1)c1csc(NC(=O)N2CC(c3ccc(N4CCNCC4)c(F)c3)C2)n1 [Example A245] | 680 | 16 | 304 |  |  |  | 
13 | C#C[C@@](C)(c1ccc(Cl)cc1)c1csc(NC(=O)NCCC(C)(C)O)n1 [Example A249, (S)-1-(4-(2-(4-chlorophenyl)but-3-yn-2-yl)thiazol-2-yl)-3-(3-hydroxy-3-methylbutyl)urea] | 670 | 128 | 11700 |  |  |  | 
14 | C#C[C@](C)(c1ccc(Cl)cc1)c1csc(NC(N)=O)n1 [Example A251, (R)-1-(4-(2-(4-chlorophenyl)but-3-yn-2-yl)thiazol-2-yl)urea] | 1670 | 81 | 892 |  |  |  | 
15 | C#C[C@@](C)(c1ccc(Cl)cc1)c1csc(NC(N)=O)n1 [Example A252, (S)-1-(4-(2-(4-chlorophenyl)but-3-yn-2-yl)thiazol-2-yl)urea] | 530 | 30 | 723 |  |  |  | 
16 | C#CC(C)(c1ccc(Cl)cc1)c1csc(NC(=O)N2CC(N3CCNCC3)C2)n1 (stereo not shown) [Example A261, N-(4-(2-(4-chlorophenyl)but-3-yn-2-yl)thiazol-2-yl)-3-(piperazin-1-yl)azetidine-1-carboxamide] | 510 | 83 | 573 |  |  |  | 
17 | C#C[C@@](C)(c1ccc(Cl)cc1)c1csc(NC(=O)NCCS(N)(=O)=O)n1 [Example A289, 2-(3-(4-(2-(4-chlorophenyl)but-3-yn-2-yl)thiazol-2-yl)ureido)ethanesulfona-mide] | 470 | 54 | 439 |  |  |  | 
18 | C#C[C@](C)(c1ccc(OC)cc1)c1csc(NC(=O)NCCS(N)(=O)=O)n1 [Example A310, 2-(3-(4-(2-(4-methoxyphenyl)but-3-yn-2-yl)thiazol-2-yl)ureido)ethanesulfona-mide] | 980 | 223 | 1910 |  |  |  | 
19 | C#C[C@@](C)(c1ccc(OC)cc1)c1csc(NC(=O)NCCS(N)(=O)=O)n1 [Example A311, 2-(3-(4-(2-(4-methoxyphenyl)but-3-yn-2-yl)thiazol-2-yl)ureido)ethanesulfona-mide] | 660 | 95 | 1160 |  |  |  | 
20 | C#C[C@@](C)(c1ccc(Cl)cc1)c1csc(NC(=O)c2c(F)cc(N3CCNCC3)cc2F)n1 [Example C008, (S)-N-(4-(2-(4-chlorophenyl)but-3-yn-2-yl)thiazol-2-yl)-2,6-difluoro-4-(piperazin-1-yl)benzamide] |  |  |  |  | decreased expression of kidney proinflammatory genes | improved the animals' survival rate | 
21 | C#C[C@@](C)(c1ccc(Cl)cc1)c1csc(NC(=O)c2c(F)cc(N3CCN(C)CC3)cc2F)n1 [Example C011, (S)-N-(4-(2-(4-chlorophenyl)but-3-yn-2-yl)thiazol-2-yl)-2,6-difluoro-4-(4-methylpiperazin-1-yl)benzamide] |  |  | 353 |  |  |  | 18
22 | COCC(C)(c1ccc(Cl)cc1)c1csc(NC(=O)c2c(F)cc(N3CCNCC3)cc2F)n1 (stereo not shown) [Example C016, N-(4-(2-(4-chlorophenyl)-1-methoxypropan-2-yl)thiazol-2-yl)-2,6-difluoro-4-(piperazin-1-yl)benzamide] |  |  | 1590 |  |  |  | 16
23 | COC[C@@](C)(c1ccccc1)c1csc(NC(=O)c2c(F)cc(N3CCNCC3)cc2F)n1 [Example C018, (S)-2,6-difluoro-N-(4-(1-methoxy-2-phenylpropan-2-yl)thiazol-2-yl)-4-(piperazin-1-yl)benzamide] |  |  | 1920 |  |  |  | 36
24 | CC#CC(C)(c1ccc(Cl)cc1)c1csc(NC(=O)c2c(F)cc(N3CCNCC3)cc2F)n1 (stereo not shown) [Example C039, N-(4-(2-(4-chlorophenyl)pent-3-yn-2-yl)thiazol-2-yl)-2,6-difluoro-4-(piperazin-1-yl)benzamide] |  |  | 959 |  |  |  | 36
25 | C#Cc1ccc(C(C)(C#C)c2csc(NC(=O)c3c(F)cc(N4CCNCC4)cc3F)n2)cc1 (stereo not shown) [Example C042, N-[4-[1-(4-ethynylphenyl)-1-methyl-prop-2-ynyl]thiazol-2-yl]-2,6-difluoro-4-piperazin-1-yl-benzamide] |  |  | 225 |  |  |  | 101
26 | CC(c1ccccc1)(c1ccc(Cl)cc1)c1csc(NC(=O)c2c(F)cc(N3CCNCC3)cc2F)n1 (stereo not shown) [Example C046, N-(4-(1-(4-chlorophenyl)-1-phenylethyl)thiazol-2-yl)-2,6-difluoro-4-(piperazin-1-yl)benzamide] |  |  | 4450 |  |  |  | 377
